Data from publication PMC11948903, “Exploring the synergy between fungal CE15 glucuronoyl esterases and xylanases for lignocellulose saccharification” (Biotechnology for Biofuels and Bioproducts, 2025).

Assays:
[1] = test system: T1, AeGE15; assay: HPLC of released cinnamyl alcohol (UV […] nm), Michaelis-Menten fit; assay type: biochemical, Artolenzites elegans; details: 50 °C, pH 5; substrate 0.2–5.0 mM; read-out: Kinetic parameters / KM
T1 construct: gene aege; mature protein with N-terminal CBM1 and CE15 domain; native signal peptide (21 of 471 residues) removed; alpha-factor secretion signal, C-terminal His6 tag kept; Pichia pastoris X33

[2] = test system: T2, TlGE15; assay: as above; assay type: biochemical, Trametes ljubarskyi; details: 40 °C, pH 5; substrate 0.2–5.0 mM; read-out: Kinetic parameters / KM
T2 construct: gene tlge; mature protein with N-terminal CBM1 and CE15 domain; native signal peptide (21 of 474 residues) removed; alpha-factor secretion signal, C-terminal His6 tag kept; Pichia pastoris X33

Km [1]: 3.6 ± 0.6 mM | Km [2]: 3.2 ± 0.5 mM
SMILES: O=C(OC/C=C/c1ccccc1)[C@H]1OC(O)[C@H](O)[C@@H](O)[C@@H]1O (stereo partly drawn) [trans−3-phenyl-2-propen-1-yl D-glucopyranosyluronate]
